PubChem BioAssay (NCI)
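How tested: cells in 96-well plates exposed to compound for 48 hours at five concentrations. GI50 is the concentration that inhibits growth by half. Definition used: TGI = concentration required for complete inhibition of growth.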

Legend:
Experiment in all cases: NCI anticancer screen, dose series, 48 h
786-0 renal = test system: 786-0 renal
A498 renal = test system: A498 renal
A549 NSCLC = test system: A549 NSCLC
ACHN renal = test system: ACHN renal
BT-549 breast = test system: BT-549 breast
CCRF-CEM leukemia = test system: CCRF-CEM leukemia
COLO 205 colon = test system: COLO 205 colon
DU-145 prostate = test system: DU-145 prostate
EKVX NSCLC = test system: EKVX NSCLC
HCC-2998 colon = test system: HCC-2998 colon
HCT-116 colon = test system: HCT-116 colon
HCT-15 colon = test system: HCT-15 colon
HL-60(TB) leukemia = test system: HL-60(TB) leukemia
HOP-62 NSCLC = test system: HOP-62 NSCLC
HOP-92 NSCLC = test system: HOP-92 NSCLC
HS 578T breast = test system: HS 578T breast
HT29 colon = test system: HT29 colon
IGROV1 ovarian = test system: IGROV1 ovarian
K-562 leukemia = test system: K-562 leukemia
KM12 colon = test system: KM12 colon
LOX IMVI melanoma = test system: LOX IMVI melanoma
M14 melanoma = test system: M14 melanoma
MALME-3M melanoma = test system: MALME-3M melanoma
MCF7 breast = test system: MCF7 breast
MDA-MB-231 breast = test system: MDA-MB-231 breast
MDA-MB-435 = test system: MDA-MB-435
MOLT-4 leukemia = test system: MOLT-4 leukemia
NCI-H226 lung = test system: NCI-H226 lung
NCI-H23 lung = test system: NCI-H23 lung
NCI-H460 lung = test system: NCI-H460 lung
NCI-H522 lung = test system: NCI-H522 lung
NCI/ADR-RES ovarian = test system: NCI/ADR-RES ovarian
OVCAR-3 ovarian = test system: OVCAR-3 ovarian
OVCAR-4 ovarian = test system: OVCAR-4 ovarian
OVCAR-5 ovarian = test system: OVCAR-5 ovarian
OVCAR-8 ovarian = test system: OVCAR-8 ovarian
PC-3 prostate = test system: PC-3 prostate
RPMI-8226 leukemia = test system: RPMI-8226 leukemia
RXF 393 renal = test system: RXF 393 renal
SF-268 CNS = test system: SF-268 CNS
SF-295 CNS = test system: SF-295 CNS
SF-539 CNS = test system: SF-539 CNS
SK-MEL-2 melanoma = test system: SK-MEL-2 melanoma
SK-MEL-28 melanoma = test system: SK-MEL-28 melanoma
SK-MEL-5 melanoma = test system: SK-MEL-5 melanoma
SK-OV-3 ovarian = test system: SK-OV-3 ovarian
SN12C renal = test system: SN12C renal
SNB-19 CNS = test system: SNB-19 CNS
SNB-75 CNS = test system: SNB-75 CNS
SR leukemia = test system: SR leukemia
SW-620 colon = test system: SW-620 colon
T-47D breast = test system: T-47D breast
TK-10 renal = test system: TK-10 renal
U251 CNS = test system: U251 CNS
UACC-257 melanoma = test system: UACC-257 melanoma
UACC-62 melanoma = test system: UACC-62 melanoma
UO-31 renal = test system: UO-31 renal

COCCOCCOCc1n(Cc2ccc3ccccc3n2)c2ccccc2[n+]1Cc1ccc2ccccc2n1 showed a GI50 (786-0 renal) of 3.74 µM, a TGI (786-0 renal) of 15.5 µM and a GI50 (A498 renal) of 2.48 µM. The TGI (A498 renal) was 7.74 µM, the GI50 (A549 NSCLC) was 3.21 µM and the TGI (A549 NSCLC) was 69.5 µM. It also gave a GI50 (ACHN renal) of 13.7 µM, a TGI (ACHN renal) of 81.7 µM and a GI50 (BT-549 breast) of 0.369 µM. For the same molecule, the TGI (BT-549 breast) was 4.42 µM, the GI50 (CCRF-CEM leukemia) was 1.78 µM and the TGI (CCRF-CEM leukemia) was 16 µM. For the same molecule, the GI50 (COLO 205 colon) was 0.284 µM, the TGI (COLO 205 colon) was 1.5 µM and the GI50 (DU-145 prostate) was 2.67 µM. For the same molecule, the TGI (DU-145 prostate) was 41.8 µM, the GI50 (EKVX NSCLC) was 2.55 µM and the TGI (EKVX NSCLC) was 24.4 µM. It also gave a GI50 (HCC-2998 colon) of 0.912 µM, a TGI (HCC-2998 colon) of 14.4 µM and a GI50 (HCT-116 colon) of 1.26 µM. It also gave a TGI (HCT-116 colon) of 11.7 µM, a GI50 (HCT-15 colon) of 15.8 µM and a TGI (HCT-15 colon) of 52 µM. It also gave a GI50 (HL-60(TB) leukemia) of 0.26 µM, a TGI (HL-60(TB) leukemia) of 1.31 µM and a GI50 (HOP-62 NSCLC) of 2.44 µM. It also gave a TGI (HOP-62 NSCLC) of 14.3 µM, a GI50 (HOP-92 NSCLC) of 0.217 µM and a TGI (HOP-92 NSCLC) of 2.74 µM. The GI50 (HS 578T breast) was 2.16 µM, the TGI (HS 578T breast) was 21 µM and the GI50 (HT29 colon) was 0.53 µM. It also gave a TGI (HT29 colon) of 10.6 µM, a GI50 (IGROV1 ovarian) of 0.645 µM and a TGI (IGROV1 ovarian) of 11.8 µM. The GI50 (K-562 leukemia) was 0.421 µM, the TGI (K-562 leukemia) was 13.2 µM and the GI50 (KM12 colon) was 0.502 µM. For the same molecule, the TGI (KM12 colon) was 6.13 µM, the GI50 (LOX IMVI melanoma) was 1.14 µM and the TGI (LOX IMVI melanoma) was 10.4 µM. For the same molecule, the GI50 (M14 melanoma) was 1.56 µM, the TGI (M14 melanoma) was 12.8 µM and the GI50 (MALME-3M melanoma) was 0.658 µM. For the same molecule, the TGI (MALME-3M melanoma) was 8.67 µM, the GI50 (MCF7 breast) was 0.369 µM and the TGI (MCF7 breast) was 11.1 µM. For the same molecule, the GI50 (MDA-MB-231 breast) was 1.02 µM, the TGI (MDA-MB-231 breast) was 9.58 µM and the GI50 (MDA-MB-435) was 0.387 µM. The TGI (MDA-MB-435) was 10.8 µM, the GI50 (MOLT-4 leukemia) was 1.88 µM and the TGI (MOLT-4 leukemia) was 13 µM. For the same molecule, the GI50 (NCI-H226 lung) was 2.44 µM, the TGI (NCI-H226 lung) was 18.4 µM and the GI50 (NCI-H23 lung) was 0.657 µM. It also gave a TGI (NCI-H23 lung) of 12.2 µM, a GI50 (NCI-H460 lung) of 1.87 µM and a TGI (NCI-H460 lung) of 12.4 µM. The GI50 (NCI-H522 lung) was 0.415 µM, the TGI (NCI-H522 lung) was 11.1 µM and the GI50 (NCI/ADR-RES ovarian) was > 100 µM. The TGI (NCI/ADR-RES ovarian) was > 100 µM, the GI50 (OVCAR-3 ovarian) was 0.479 µM and the TGI (OVCAR-3 ovarian) was 13.8 µM. It also gave a GI50 (OVCAR-4 ovarian) of 0.373 µM, a TGI (OVCAR-4 ovarian) of 13.3 µM and a GI50 (OVCAR-5 ovarian) of 2.5 µM. The TGI (OVCAR-5 ovarian) was 18 µM, the GI50 (OVCAR-8 ovarian) was 1.27 µM and the TGI (OVCAR-8 ovarian) was 12.6 µM. For the same molecule, the GI50 (PC-3 prostate) was 0.591 µM, the TGI (PC-3 prostate) was 11.7 µM and the GI50 (RPMI-8226 leukemia) was 0.138 µM. It also gave a TGI (RPMI-8226 leukemia) of 12.4 µM, a GI50 (RXF 393 renal) of 1.23 µM and a TGI (RXF 393 renal) of 9.7 µM. It also gave a GI50 (SF-268 CNS) of 0.903 µM, a TGI (SF-268 CNS) of 16.2 µM and a GI50 (SF-295 CNS) of 1.69 µM. The TGI (SF-295 CNS) was 8.19 µM, the GI50 (SF-539 CNS) was 0.852 µM and the TGI (SF-539 CNS) was 13.6 µM. The GI50 (SK-MEL-2 melanoma) was 0.447 µM, the TGI (SK-MEL-2 melanoma) was 2.39 µM and the GI50 (SK-MEL-28 melanoma) was 0.759 µM. The TGI (SK-MEL-28 melanoma) was 14.5 µM, the GI50 (SK-MEL-5 melanoma) was 0.388 µM and the TGI (SK-MEL-5 melanoma) was 1.48 µM. The GI50 (SK-OV-3 ovarian) was 1.79 µM, the TGI (SK-OV-3 ovarian) was 6.6 µM and the GI50 (SN12C renal) was 0.306 µM. The TGI (SN12C renal) was 11.1 µM, the GI50 (SNB-19 CNS) was 0.444 µM and the TGI (SNB-19 CNS) was 13.5 µM. For the same molecule, the GI50 (SNB-75 CNS) was 0.317 µM, the TGI (SNB-75 CNS) was 4.3 µM and the GI50 (SR leukemia) was 0.663 µM. The TGI (SR leukemia) was 11.8 µM, the GI50 (SW-620 colon) was 2.03 µM and the TGI (SW-620 colon) was 17.2 µM. The GI50 (T-47D breast) was 0.302 µM, the TGI (T-47D breast) was 13.1 µM and the GI50 (TK-10 renal) was 4.02 µM. For the same molecule, the TGI (TK-10 renal) was 16.2 µM, the GI50 (U251 CNS) was 0.354 µM and the TGI (U251 CNS) was 12.9 µM. The GI50 (UACC-257 melanoma) was 0.277 µM, the TGI (UACC-257 melanoma) was 3.73 µM and the GI50 (UACC-62 melanoma) was 0.424 µM. The TGI (UACC-62 melanoma) was 10.2 µM, the GI50 (UO-31 renal) was 12.1 µM and the TGI (UO-31 renal) was 36.2 µM.
